Experimental data taken from patent US9617343B2, “Methods and compositions for treating lupus” (GENZYME CORPORATION, priority 2009, dated 2017).

Legend:
Assay type in all cases: in vivo, mouse
[1] = test system: NZB/NZWF1 mice; assay: Histological examination of kidneys; conditions: trend, not statistically significant
[2] = test system: NZB/NZWF1 mice; assay: Kidney section staining for CD4+, CD8+ and FoxP3+ cells; conditions: kidney sections of NZB/NZWF1 mice scored blindly on a scale of 0-4
[3] = test system: NZB/NZWF1 mice; assay: Titers of serum IgG antibodies to dsDNA by ELISA; conditions: antibody two i.p. injections ~3 mg/kg, cyclophosphamide 50 mg/kg weekly
[4] = test system: NZB/NZWF1 mice; conditions: antibodies two doses ~3 mg/kg i.p., cyclophosphamide 50 mg/kg weekly injections, to 43 weeks of age
[5] = test system: NZB/NZWF1 mice; assay: Levels of proteinuria (colorimetric total urine protein assay); conditions: by the end of the study (43 weeks), antibodies two i.p. injections ~3 mg/kg, cyclophosphamide 50 mg/kg weekly

O=P1(N(CCCl)CCCl)NCCCO1 (centres unmarked) [cyclophosphamide, Cyclophosphamide]
median glomerulopathy scores ([1]; compared to rat IgG and vehicle control groups): reduced | interstitial inflammation [1]: Reduced | CD4+ cells infiltrating the kidneys [2]: significant decrease | CD8+ cells infiltrating the kidneys [2]: significant decrease | FoxP3+ cells infiltrating the kidneys [2]: significant decrease | effect on development of autoantibodies against dsDNA (serum IgG titers) [3]: effectively reduced | survival [4]: 80% | mice that reached severe proteinuria (>500 mg/dL/day) [5]: 20%
